The record followed here is ChEMBL document CHEMBL1909046, “DrugMatrix in vitro pharmacology data”.

The target in data set [1] is T1, Type-2 angiotensin II receptor (Homo sapiens, UniProt P50052).
T1 sequence (P50052 whole entry): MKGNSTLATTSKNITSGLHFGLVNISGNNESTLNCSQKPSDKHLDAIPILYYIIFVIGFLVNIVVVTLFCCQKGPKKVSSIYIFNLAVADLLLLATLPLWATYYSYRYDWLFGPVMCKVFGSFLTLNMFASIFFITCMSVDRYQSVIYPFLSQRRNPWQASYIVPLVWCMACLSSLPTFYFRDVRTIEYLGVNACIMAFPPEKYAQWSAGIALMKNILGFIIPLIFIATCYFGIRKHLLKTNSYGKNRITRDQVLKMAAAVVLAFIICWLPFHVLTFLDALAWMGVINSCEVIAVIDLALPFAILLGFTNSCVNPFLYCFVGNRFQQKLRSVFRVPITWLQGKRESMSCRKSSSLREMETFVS
Put plainly: biochemical. In kind it is cell-based, CHO-K1. Conditions: cho-k1.

A further data set concerns the target T2, Substance-K receptor (Homo sapiens, UniProt P21452).
T2 sequence (P21452 whole entry): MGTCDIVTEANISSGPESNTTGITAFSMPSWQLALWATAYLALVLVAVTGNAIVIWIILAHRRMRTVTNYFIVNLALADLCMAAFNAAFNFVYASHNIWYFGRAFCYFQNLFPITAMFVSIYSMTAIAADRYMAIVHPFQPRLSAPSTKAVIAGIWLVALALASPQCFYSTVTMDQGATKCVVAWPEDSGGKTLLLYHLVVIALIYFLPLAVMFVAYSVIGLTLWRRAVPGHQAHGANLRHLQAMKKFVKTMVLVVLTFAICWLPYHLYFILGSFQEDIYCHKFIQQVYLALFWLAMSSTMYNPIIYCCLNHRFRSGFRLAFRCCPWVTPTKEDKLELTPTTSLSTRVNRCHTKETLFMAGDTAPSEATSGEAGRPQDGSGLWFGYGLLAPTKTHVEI
The format is cell membranes, CHO, Membrane.

The target in data set [2] is T3, C-X-C chemokine receptor type 1 (Homo sapiens, UniProt P25024).
T3 sequence (P25024 whole entry): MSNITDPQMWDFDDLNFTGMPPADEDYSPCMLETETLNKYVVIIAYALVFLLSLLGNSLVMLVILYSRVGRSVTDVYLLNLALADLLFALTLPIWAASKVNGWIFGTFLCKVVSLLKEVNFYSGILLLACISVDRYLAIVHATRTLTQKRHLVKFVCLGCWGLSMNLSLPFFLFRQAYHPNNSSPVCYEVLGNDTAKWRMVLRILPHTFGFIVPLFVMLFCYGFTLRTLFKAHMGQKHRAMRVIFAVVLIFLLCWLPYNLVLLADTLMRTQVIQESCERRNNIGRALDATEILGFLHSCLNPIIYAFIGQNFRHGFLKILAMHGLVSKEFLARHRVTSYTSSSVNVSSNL

The target in a further data set is Melanocortin receptor 3 (Homo sapiens, UniProt P41968). The format is cell membranes, Membrane. The note with it: hek293.
Chain of Melanocortin receptor 3 (P41968 whole entry): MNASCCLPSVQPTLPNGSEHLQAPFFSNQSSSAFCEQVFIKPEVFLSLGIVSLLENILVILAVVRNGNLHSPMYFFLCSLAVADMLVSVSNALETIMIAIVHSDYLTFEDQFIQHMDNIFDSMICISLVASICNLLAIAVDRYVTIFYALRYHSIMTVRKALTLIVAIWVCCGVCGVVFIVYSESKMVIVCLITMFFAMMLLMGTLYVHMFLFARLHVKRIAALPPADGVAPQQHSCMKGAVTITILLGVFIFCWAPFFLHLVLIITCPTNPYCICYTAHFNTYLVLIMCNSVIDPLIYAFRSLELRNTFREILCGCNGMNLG
A further data set has as its target T4, Adenosine receptor A1 (Homo sapiens, UniProt P30542).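 Further: radioligand binding assay at the adenosine A1 receptor, with DPCPX serving as the labelled ligand.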
T4 sequence (P30542 whole entry): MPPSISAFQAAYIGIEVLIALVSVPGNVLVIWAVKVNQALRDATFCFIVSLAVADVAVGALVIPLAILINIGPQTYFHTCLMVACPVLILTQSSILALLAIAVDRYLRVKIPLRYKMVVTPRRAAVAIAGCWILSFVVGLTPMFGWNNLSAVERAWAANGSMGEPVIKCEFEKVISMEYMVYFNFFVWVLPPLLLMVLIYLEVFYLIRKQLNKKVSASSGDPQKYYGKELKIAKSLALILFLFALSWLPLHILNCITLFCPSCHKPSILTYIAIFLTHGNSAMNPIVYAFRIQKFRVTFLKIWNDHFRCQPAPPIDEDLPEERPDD
The format is cell membranes, CHO, Membrane. Conditions: cho.

In another data set the target is T5, Cytochrome P450 2A6 (Homo sapiens, UniProt P11509).
T5 sequence (P11509 whole entry): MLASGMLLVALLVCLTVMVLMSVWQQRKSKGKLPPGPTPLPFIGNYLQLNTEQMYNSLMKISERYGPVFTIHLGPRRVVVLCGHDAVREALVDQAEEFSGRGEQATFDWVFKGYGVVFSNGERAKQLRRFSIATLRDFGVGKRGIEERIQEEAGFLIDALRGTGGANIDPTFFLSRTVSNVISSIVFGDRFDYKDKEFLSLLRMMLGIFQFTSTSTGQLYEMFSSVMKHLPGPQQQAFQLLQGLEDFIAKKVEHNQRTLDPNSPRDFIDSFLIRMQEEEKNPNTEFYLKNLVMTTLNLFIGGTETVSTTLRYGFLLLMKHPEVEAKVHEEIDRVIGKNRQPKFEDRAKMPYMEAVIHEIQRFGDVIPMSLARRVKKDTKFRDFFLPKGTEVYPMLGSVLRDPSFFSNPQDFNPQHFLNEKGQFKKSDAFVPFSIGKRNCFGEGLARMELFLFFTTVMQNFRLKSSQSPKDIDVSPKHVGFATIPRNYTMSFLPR
Conditions: bti-tn-5b1-4.

A word on the IC50: it is the concentration that inhibits the measured activity by half. One may read the Ki as the dissociation constant of the complex between target and ligand, obtained from inhibition or displacement.
Further: in other assays of this panel Not Active means under 50% inhibition at 10 µM.

As to `Nc1ccc(S(=O)(=O)NC(=O)c2ccccc2)cc1` [SULFABENZAMIDE], the IC50 entry (in data set [1]; against Substance-K receptor (cho); in data set [2]; on Melanocortin receptor 3; against Adenosine receptor A1; at Cytochrome P450 2A6) was “Not Active” each time. In addition, the Ki result at Cytochrome P450 2A6 was “Not Active”.
As for `CCCCCCCCNC(C)C(O)c1ccc(SC(C)C)cc1` (centres undefined) [SULOCTIDIL], the IC50 entry in data set [1] was “Not Active”; on Substance-K receptor (read-out: IC50) it was 6.79 µM; in data set [2], “Not Active”; at Melanocortin receptor 3, “Not Active”; on Adenosine receptor A1 it was “Not Active”; on Cytochrome P450 2A6 it was “Not Active”. Moreover, the Ki on Substance-K receptor (read-out: Ki) was 2.26 µM; at Cytochrome P450 2A6 it was “Not Active”.
On to `O=c1[nH]c(=O)n(C2CCCO2)cc1F` (centres undefined) [TEGAFUR], for which the concentration for half-maximal inhibition (IC50) result (in data set [1]; at Substance-K receptor (cho); in data set [2]; at Melanocortin receptor 3; on Adenosine receptor A1; on Cytochrome P450 2A6) was “Not Active” each time. Moreover, the Ki entry on Cytochrome P450 2A6 is recorded as “Not Active”.
As for `CC(=N)S` [THIOACETAMIDE], the IC50 result (in data set [1]; on Substance-K receptor (cho); in data set [2]; against Melanocortin receptor 3; against Adenosine receptor A1; on Cytochrome P450 2A6) was “Not Active” each time. Also, the Ki entry on Cytochrome P450 2A6 is reported as “Not Active”.
Regarding `Cc1ccc(C(=O)c2ccc(CC(=O)O)n2C)cc1` [TOLMETIN], the IC50 result (in data set [1]; on Substance-K receptor (cho); in data set [2]; against Melanocortin receptor 3; on Adenosine receptor A1; against Cytochrome P450 2A6) was “Not Active” throughout. Further, the Ki entry on Cytochrome P450 2A6 is “Not Active”.
For the molecule `CC(=O)OCC(COC(C)=O)OC(C)=O` [TRIACETIN], the IC50 entry (in data set [1]; against Substance-K receptor (cho); in data set [2]; against Melanocortin receptor 3; at Adenosine receptor A1; against Cytochrome P450 2A6) was “Not Active” throughout. Besides, the Ki entry at Cytochrome P450 2A6 is recorded as “Not Active”.
Regarding `CN1CCN(CCCN2c3ccccc3Sc3ccc(C(F)(F)F)cc32)CC1` [TRIFLUOPERAZINE], the IC50 result (in data set [1]; at Substance-K receptor (cho); in data set [2]; against Melanocortin receptor 3; on Adenosine receptor A1; against Cytochrome P450 2A6) was “Not Active” throughout. In addition, the Ki entry on Cytochrome P450 2A6 is “Not Active”.
Turning to TRANSPLATIN, the IC50 result (in data set [1]; on Substance-K receptor (cho); in data set [2]; against Melanocortin receptor 3; against Adenosine receptor A1; against Cytochrome P450 2A6) was “Not Active” each time. Moreover, the Ki result (in data set [1]; on Substance-K receptor (cho); in data set [2]; at Melanocortin receptor 3; at Adenosine receptor A1; at Cytochrome P450 2A6) was “Not Active” each time.
For ZIRCONIUM(IV) CHLORIDE, the IC50 entry (in data set [1]; against Substance-K receptor (cho); in data set [2]; against Melanocortin receptor 3; against Adenosine receptor A1; against Cytochrome P450 2A6) was “Not Active” in each case. Also, the Ki entry (in data set [1]; at Substance-K receptor (cho); in data set [2]; on Melanocortin receptor 3; on Adenosine receptor A1; at Cytochrome P450 2A6) was “Not Active” each time.
